According to EP0323740A2, “Linear analogs of atrial natriuretic peptides” (CALIFORNIA BIOTECHNOLOGY, INC., priority 1987, dated 1989):

Target: T1, ANP-receptor (Bos taurus, UniProt P10730)
T1 construct: endogenous in cells; host or cells: cultured BASM cells
T1 sequence (P10730 42-537): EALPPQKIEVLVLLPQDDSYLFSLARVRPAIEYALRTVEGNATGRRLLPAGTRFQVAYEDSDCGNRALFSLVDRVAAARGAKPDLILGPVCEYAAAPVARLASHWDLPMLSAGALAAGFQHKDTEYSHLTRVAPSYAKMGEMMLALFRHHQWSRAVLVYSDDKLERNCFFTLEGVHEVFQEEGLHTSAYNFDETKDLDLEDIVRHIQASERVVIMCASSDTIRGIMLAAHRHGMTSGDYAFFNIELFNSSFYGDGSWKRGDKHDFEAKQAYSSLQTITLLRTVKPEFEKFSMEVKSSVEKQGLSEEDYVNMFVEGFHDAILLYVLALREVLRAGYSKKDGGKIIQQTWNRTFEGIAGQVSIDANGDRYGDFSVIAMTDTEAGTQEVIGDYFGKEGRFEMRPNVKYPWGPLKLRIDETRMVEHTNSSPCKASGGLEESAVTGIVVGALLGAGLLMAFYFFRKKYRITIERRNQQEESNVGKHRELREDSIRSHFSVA
Experiment: competitive displacement receptor binding assay with (¹²⁵I)-rANP(126-150) on cultured cells
Parameters: species or system bovine
Conditions: concentration of unlabeled peptide displacing 50% of maximal binding of 0.5 nM (¹²⁵I)-rANP(126-150); BASM cells; read-out: Ki(app)
From the text: Analogous "competitive displacement" receptor binding assays are considered commonplace in the art for examining specific ligand-receptor interactions.
Assuming these ANP analogs act at one or more ANP receptor sites, then increased receptor affinity should reflect increased biological potency.

| Compound | Ki [nM] |
| --- | --- |
| CC[C@H](C)[C@H](NC(=O)[C@H](Cc1ccc(O)cc1)NC(=O)[C@@H](NC(=O)[C@H](CCCNC(=N)N)NC(=O)[C@@H](N)CC(=O)O)C(C)C)C(=O)N[C@@H](Cc1cnc[nH]1)C(=O)N1CCC[C@H]1C(=O)N[C@@H](Cc1ccccc1)C(=O)O [angiotensin II] | > 500 |
| parathyroid hormone | > 500 |
